Drawing on the supplement of paper PMC10307832, this text covers relative viability for 9 cell lines.

Common to all, as to assay: relative viability (nuclei count vs DMSO), 5 days (fraction); higher = more cells survive
Compound in test [1]: CCc1c2c(nc3ccc(OC(=O)N4CCC(N5CCCCC5)CC4)cc13)-c1cc3c(c(=O)n1C2)COC(=O)[C@]3(O)CC [Irinotecan] + CS(=O)(=O)CCNCc1ccc(-c2ccc3ncnc(Nc4ccc(OCc5cccc(F)c5)c(Cl)c4)c3c2)o1 [Lapatinib] (partner 2 µM)
In short, it runs like this:
(§1)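 For relative viability, nuclei counts in treated wells were divided by those in vehicle wells. Lung cancer cell lines had been pin-tool dosed in 1536-well plates the day after seeding and cultured for 5 days, then fixed and stained in one step (final 0.05% Triton X-100, 1% formaldehyde, 1 ug/ml Hoechst) and imaged at 4×. Doses were one drug alone or a fixed anchor-drug dose plus five library-drug doses (not always all listed) in √10 steps, and values are duplicate-plate medians.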

Compound in test [2]: CC[C@@H](C)CNCC(=O)N1CCC2=C([C@@H]1COC3=CC=CC(=C3)C)C=CS2 [RU-SKI 43] + CC(=O)c1c(C)c2cnc(Nc3ccc(N4CCNCC4)cn3)nc2n(C2CCCC2)c1=O [Palbociclib] (partner 0.5 µM)
In outline: as §1

Compound in test [3]: CCc1c2c(nc3ccc(OC(=O)N4CCC(N5CCCCC5)CC4)cc13)-c1cc3c(c(=O)n1C2)COC(=O)[C@]3(O)CC [Irinotecan] + COc1cc2c(Oc3ccc(NC(=O)C4(C(=O)Nc5ccc(F)cc5)CC4)cc3F)ccnc2cc1OCCCN1CCOCC1 [Foretinib] (partner 0.25 µM)
In outline:
as §1

Compound in test [4]: CCc1c2c(nc3ccc(OC(=O)N4CCC(N5CCCCC5)CC4)cc13)-c1cc3c(c(=O)n1C2)COC(=O)[C@]3(O)CC [Irinotecan] + CC(C)C[C@H](NC(=O)[C@H](Cc1ccccc1)NC(=O)c1cnccn1)B(O)O [Bortezomib] (partner 0.002 µM)
In short, it runs like this: as §1

Turning to NCI-H2228, the relative viability in test [1] (first compound 0.6325 µM) is 0.798; in test [1] (first compound 2 µM) it was 0.772; in test [1] (first compound 6.325 µM), 0.461; in test [1] (first compound 20 µM), 0.353; in test [2] (first compound 0.1 µM), 0.735; in test [2] (first compound 0.3162 µM), 1.05. Also, the relative viability in test [2] (first compound 1 µM) was found to be 0.892; in test [2] (first compound 3.162 µM), 0.535; in test [2] (first compound 10 µM) it was 0.737; in test [3] (first compound 0.6325 µM), 0.925; in test [3] (first compound 2 µM) it was 0.731; in test [3] (first compound 6.325 µM) it was 0.293. Moreover, the relative viability came to 0.238 in test [3] (first compound 20 µM); 0.689 in test [4] (first compound 0.6325 µM); 0.685 in test [4] (first compound 2 µM); 0.514 in test [4] (first compound 6.325 µM); 0.343 in test [4] (first compound 20 µM).
Take NCI-H2347: the relative viability turned out to be 0.682 in test [1] (first compound 0.6325 µM); 0.738 in test [1] (first compound 2 µM); 0.449 in test [1] (first compound 6.325 µM); 0.444 in test [1] (first compound 20 µM); 0.434 in test [2] (first compound 0.1 µM); 0.329 in test [2] (first compound 0.3162 µM). Besides, the relative viability in test [2] (first compound 1 µM) stood at 0.441; in test [2] (first compound 3.162 µM) it was 0.403; in test [2] (first compound 10 µM), 0.394; in test [3] (first compound 0.6325 µM) it was 0.53; in test [3] (first compound 2 µM), 0.662; in test [3] (first compound 6.325 µM), 0.41. For the same cell line, the relative viability was 0.665 in test [3] (first compound 20 µM); 0.512 in test [4] (first compound 0.6325 µM); 0.918 in test [4] (first compound 2 µM); 0.493 in test [4] (first compound 6.325 µM); 0.555 in test [4] (first compound 20 µM).
Take NCI-H2405: the relative viability came out at 1.05 in test [1] (first compound 2 µM); 0.333 in test [1] (first compound 6.325 µM); 0.101 in test [1] (first compound 20 µM); 0.504 in test [2] (first compound 0.1 µM); 0.603 in test [2] (first compound 0.3162 µM); 0.551 in test [2] (first compound 1 µM). In addition, the relative viability in test [2] (first compound 3.162 µM) came to 0.576; in test [2] (first compound 10 µM), 0.503; in test [3] (first compound 2 µM) it was 0.897; in test [3] (first compound 6.325 µM), 0.394; in test [3] (first compound 20 µM), 0.307; in test [4] (first compound 0.6325 µM) it was 0.573. Besides, the figures for the relative viability in test [4] (first compound 2 µM), in test [4] (first compound 6.325 µM) and in test [4] (first compound 20 µM) were 0.931, 0.662 and 0.299, respectively.
In the case of NCI-H3122, the relative viability in test [1] (first compound 0.6325 µM) was 0.994; in test [1] (first compound 2 µM), 0.529; in test [1] (first compound 6.325 µM), 0.24; in test [1] (first compound 20 µM) it was 0.274; in test [2] (first compound 0.1 µM), 0.193; in test [2] (first compound 0.3162 µM), 0.166. Moreover, the relative viability in test [2] (first compound 1 µM) came to 0.185; in test [2] (first compound 3.162 µM) it was 0.182; in test [2] (first compound 10 µM), 0.166; in test [3] (first compound 0.6325 µM), 0.833; in test [3] (first compound 2 µM) it was 0.236; in test [3] (first compound 6.325 µM), 0.183. Moreover, the relative viability turned out to be 0.171 in test [3] (first compound 20 µM); 1.05 in test [4] (first compound 0.6325 µM); 0.824 in test [4] (first compound 2 µM); 0.252 in test [4] (first compound 6.325 µM); 0.259 in test [4] (first compound 20 µM).
In the case of PC-3 [JPC-3], the relative viability was 0.3 in test [1] (first compound 0.6325 µM); 0.45 in test [1] (first compound 2 µM); 0.311 in test [1] (first compound 6.325 µM); 0.316 in test [1] (first compound 20 µM); 0.534 in test [2] (first compound 0.1 µM); 0.479 in test [2] (first compound 0.3162 µM). Moreover, the relative viability in test [2] (first compound 1 µM) came to 0.561; in test [2] (first compound 3.162 µM), 0.558; in test [2] (first compound 10 µM) it was 0.343; in test [3] (first compound 0.6325 µM), 0.912; in test [3] (first compound 2 µM) it was 0.667; in test [3] (first compound 6.325 µM) it was 0.323. The relative viability in test [3] (first compound 20 µM) was 0.368; in test [4] (first compound 0.6325 µM), 0.703; in test [4] (first compound 2 µM) it was 0.826; in test [4] (first compound 6.325 µM), 0.579; in test [4] (first compound 20 µM) it was 0.296.
For the cell line PC-14, the relative viability in test [1] (first compound 0.6325 µM) stood at 0.314; in test [1] (first compound 2 µM), 0.262; in test [1] (first compound 6.325 µM), 0.15; in test [1] (first compound 20 µM) it was 0.16; in test [2] (first compound 0.1 µM), 0.575; in test [2] (first compound 0.3162 µM), 0.668. Besides, the relative viability is 0.798 in test [2] (first compound 1 µM); 0.451 in test [2] (first compound 3.162 µM); 0.401 in test [2] (first compound 10 µM); 0.935 in test [3] (first compound 0.6325 µM); 0.806 in test [3] (first compound 2 µM); 0.431 in test [3] (first compound 6.325 µM). The relative viability is 0.189 in test [3] (first compound 20 µM); 0.831 in test [4] (first compound 0.6325 µM); 0.802 in test [4] (first compound 2 µM); 0.178 in test [4] (first compound 6.325 µM); 0.158 in test [4] (first compound 20 µM).
On to RERF-LC-KJ, for which the relative viability in test [1] (first compound 0.6325 µM) is 0.833; in test [1] (first compound 2 µM) it was 0.692; in test [1] (first compound 6.325 µM), 0.439; in test [1] (first compound 20 µM), 0.364; in test [2] (first compound 0.1 µM) it was 1.1; in test [2] (first compound 0.3162 µM) it was 1.4. Further, the relative viability worked out at 1.15 in test [2] (first compound 1 µM); 1 in test [2] (first compound 3.162 µM); 0.851 in test [2] (first compound 10 µM); 0.956 in test [3] (first compound 0.6325 µM); 0.815 in test [3] (first compound 2 µM); 0.518 in test [3] (first compound 6.325 µM). In addition, the relative viability amounted to 0.411 in test [3] (first compound 20 µM), 1.16 in test [4] (first compound 2 µM), 0.563 in test [4] (first compound 6.325 µM) and 0.468 in test [4] (first compound 20 µM).
With SK-LU-1, the relative viability in test [1] (first compound 0.6325 µM) worked out at 0.46; in test [1] (first compound 2 µM), 0.503; in test [1] (first compound 6.325 µM), 0.321; in test [1] (first compound 20 µM) it was 0.312; in test [2] (first compound 0.1 µM) it was 0.386; in test [2] (first compound 0.3162 µM), 0.386. Also, the relative viability in test [2] (first compound 1 µM) is 0.403; in test [2] (first compound 3.162 µM), 0.416; in test [2] (first compound 10 µM), 0.354; in test [3] (first compound 0.6325 µM), 0.623; in test [3] (first compound 2 µM) it was 0.382; in test [3] (first compound 6.325 µM), 0.295. Also, the relative viability in test [3] (first compound 20 µM) came out at 0.224; in test [4] (first compound 0.6325 µM), 0.887; in test [4] (first compound 2 µM), 0.672; in test [4] (first compound 6.325 µM), 0.291; in test [4] (first compound 20 µM), 0.47.
For SW 1573, the relative viability in test [1] (first compound 0.6325 µM) was found to be 0.965; in test [1] (first compound 2 µM) it was 1.11; in test [1] (first compound 6.325 µM) it was 0.326; in test [1] (first compound 20 µM), 0.195; in test [2] (first compound 0.1 µM), 0.37; in test [2] (first compound 0.3162 µM) it was 0.453. In addition, the relative viability was 0.397 in test [2] (first compound 1 µM); 0.375 in test [2] (first compound 3.162 µM); 0.283 in test [2] (first compound 10 µM); 0.848 in test [3] (first compound 0.6325 µM); 0.786 in test [3] (first compound 2 µM); 0.463 in test [3] (first compound 6.325 µM). Further, the relative viability was 0.195 in test [3] (first compound 20 µM); 0.803 in test [4] (first compound 0.6325 µM); 0.745 in test [4] (first compound 2 µM); 0.189 in test [4] (first compound 6.325 µM); 0.162 in test [4] (first compound 20 µM).
